Tests used:
full-length HAUSP = experiment: gel filtration binding assay of MDM2 with full-length HAUSP; settings: Superdex-200, 25 mM Tris pH 8.0, 100 mM NaCl, 2 mM DTT, 4 °C
Method: (§1) Size-exclusion chromatography (gel filtration), using a Superdex-200 column (10/30, Amersham Pharmacia Biotech, Piscataway, New Jersey, United States), was employed to carry out all the in vitro binding assays. Proteins subjected to binding tests were incubated at 4 °C for at least 45 min to allow equilibrium to be reached. The flow rate was 0.5 ml/min, and the buffer contained 25 mM Tris (pH 8.0), 100 mM NaCl, and 2 mM DTT. All fractions were collected at 0.5 ml each. Aliquots of relevant fractions were mixed with SDS sample buffer and subjected to SDS-polyacrylamide gel electrophoresis. The proteins were visualized by Coomassie Blue staining. The column was calibrated with molecular-mass standards.

[1] = biological target: T1, HAUSP TRAF-like domain (residues 53–206) (Homo sapiens, UniProt Q93009); experiment: gel filtration binding assay of MDM2 fragments with HAUSP TRAF-like domain; settings: Superdex-200, HAUSP residues 53–206, 25 mM Tris pH 8.0, 100 mM NaCl, 2 mM DTT, 4 °C
T1 construct: GST (N); made in house; host or cells: Escherichia coli BL21(DE3), vector pGEX-2T
T1 sequence (Q93009 53-206): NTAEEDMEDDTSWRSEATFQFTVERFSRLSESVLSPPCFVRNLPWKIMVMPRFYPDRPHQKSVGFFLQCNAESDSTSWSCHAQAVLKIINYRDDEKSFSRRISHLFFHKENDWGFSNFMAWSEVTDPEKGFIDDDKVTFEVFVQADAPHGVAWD
Method: as §1

[2] = test system: HAUSP TRAF-like domain (residues 1–206); experiment: gel filtration binding assay with HAUSP (residues 1–206); settings: Superdex-200, 25 mM Tris pH 8.0, 100 mM NaCl, 2 mM DTT, 4 °C, SDS-PAGE/Coomassie, protein alone, no competitor
Method: as §1

complex formation with full-length HAUSP (full-length HAUSP) | complex formation with HAUSP TRAF-like domain [1] | complex formation with HAUSP (residues 1–206) [2] | Substance
formed a stable complex | formed a stable complex | – | MDM2 (residues 170–432): 33-kDa fragment of MDM2 (residues 170–432)
– | – | form a stable complex | MDM2 (residues 170–423): MDM2 fragment, residues 170–423

Source: article PMC1334386 (PLoS Biology, 2006)
